In patent US11945822B2, “Pyrazolo-triazine and/or pyrazolo-pxrimidine derivatives as selective inhibitor of cyclin dependent kinase” (QURIENT CO., LTD., priority 2018, dated 2024):

Assays:
CDK7/Cyclin H/MNAT1 = molecular target: T1, CDK7/Cyclin H/MNAT1 (Homo sapiens, UniProt P50613); assay: Enzymatic assay for CDK7 (FRET based LANCE Ultra kinase assay); format: biochemical; conditions: for IC50: read-out: CDK7 enzymatic activity (IC50 range)
T1 construct: purchased Invitrogen PR6749B
How it was run: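 Inhibition was measured at Km ATP by time-resolved FRET between a Eu anti-phospho antibody and a phosphorylated ULight peptide. The enzyme was the purified CDK7/cyclin complex, and data were curve-fitted.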

H460 = assay: Cellular H460 viability assay (CellTiter-Glo, 72 hours); format: cell-based; conditions: Homo sapiens, NCI-H460
How it was run: (§1)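 CellTiter-Glo luminescence read in duplicate after 72 h compound exposure (37 °C, 5% CO2); DMSO-only control, final DMSO under 0.1%.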

MOLT-4 = assay: Cellular MOLT-4 viability assay (CellTiter-Glo, 72 hours); format: cell-based; conditions: Homo sapiens, MOLT4 viability assay
Experimental: (§2) All cell lines were routinely tested for mycoplasma.
(§3) The effect of the CDK7 inhibitor to inhibit the growth of target cancer cells was evaluated through the 72 hours time period of viability assay. Briefly, the candidate cell line ware plated in 96 well plate at the following density of cells respectively. […] DMSO solvent without compound served as a control and final DMSO concentration less than 0.1%. After 72 hours of incubation at 37° C., 5% CO2 incubator, cells were analyzed for the viability using the CellTiter-Glo Luminescent Cell Viability Assay (Promega, Cat #G7570). All viability assays were performed in duplicate and Luminescence was read using an Envision (Perkin Elmer, USA). Data was analyzed using XLfit software.

CDK5/p25 = molecular target: T2, CDK5/p25 (Homo sapiens, UniProt Q00535); assay: Enzymatic assay for CDK5 (FRET based LANCE Ultra kinase assay); format: biochemical; conditions: read-out: CDK5 enzymatic activity (IC50 range)
T2 construct: purchased Invitrogen PR8543B
How it was run: (§4)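 Each CDK complex ([…]) phosphorylated 68 nM ULight-MBP peptide with ATP at Km for 60 min at 23° C., against 8 compound doses (4-fold dilutions). EDTA/Eu-anti-phospho-MBP detection, 60 min, then TR-FRET emission at 615 and 665 nm.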

CDK1/Cyclin B = molecular target: T3, CDK1/Cyclin B (Homo sapiens, UniProt P06493); assay: Enzymatic assay for CDK1 (FRET based LANCE Ultra kinase assay); format: biochemical; conditions: read-out: CDK1 enzymatic activity (IC50 range)
T3 construct: purchased Invitrogen PR4768C
How it was run: as §4

CDK2/Cyclin A = molecular target: T4, CDK2/Cyclin A (Homo sapiens, UniProt P24941); assay: Enzymatic assay for CDK2 (FRET based LANCE Ultra kinase assay); format: biochemical; conditions: read-out: CDK2 enzymatic activity (IC50 range)
T4 construct: purchased Invitrogen PV6290
How it was run: as §4

HCT116 = assay: Cellular HCT116 viability assay (CellTiter-Glo, 72 hours); format: cell-based; conditions: Homo sapiens, HCT-116
How it was run: as §1

RPMI-8226 = assay: Cellular RPMI-8226 viability assay (CellTiter-Glo, 72 hours); format: cell-based; conditions: Homo sapiens
Experimental: as §2, §3

MV4-11 = assay: Cellular MV4-11 viability assay (CellTiter-Glo, 72 hours); format: cell-based; conditions: Homo sapiens
How it was run: as §1

T2 sequence (Q00535 whole entry): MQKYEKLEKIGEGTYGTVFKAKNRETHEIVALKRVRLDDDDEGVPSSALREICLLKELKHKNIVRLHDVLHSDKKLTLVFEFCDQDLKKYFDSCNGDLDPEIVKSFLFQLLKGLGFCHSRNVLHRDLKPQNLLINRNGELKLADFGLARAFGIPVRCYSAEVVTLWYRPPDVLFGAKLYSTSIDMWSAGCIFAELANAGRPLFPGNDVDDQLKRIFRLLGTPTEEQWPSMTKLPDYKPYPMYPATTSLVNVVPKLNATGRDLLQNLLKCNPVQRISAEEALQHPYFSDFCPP
T2 sequence (Q15078 99-307 partner limits assumed): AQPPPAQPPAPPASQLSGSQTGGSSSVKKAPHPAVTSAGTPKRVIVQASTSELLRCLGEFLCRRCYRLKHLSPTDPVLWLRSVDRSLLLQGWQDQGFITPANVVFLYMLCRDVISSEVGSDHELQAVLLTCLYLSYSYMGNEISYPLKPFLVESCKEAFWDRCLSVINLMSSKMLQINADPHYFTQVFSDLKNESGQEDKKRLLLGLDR
T1 sequence (P50613 whole entry): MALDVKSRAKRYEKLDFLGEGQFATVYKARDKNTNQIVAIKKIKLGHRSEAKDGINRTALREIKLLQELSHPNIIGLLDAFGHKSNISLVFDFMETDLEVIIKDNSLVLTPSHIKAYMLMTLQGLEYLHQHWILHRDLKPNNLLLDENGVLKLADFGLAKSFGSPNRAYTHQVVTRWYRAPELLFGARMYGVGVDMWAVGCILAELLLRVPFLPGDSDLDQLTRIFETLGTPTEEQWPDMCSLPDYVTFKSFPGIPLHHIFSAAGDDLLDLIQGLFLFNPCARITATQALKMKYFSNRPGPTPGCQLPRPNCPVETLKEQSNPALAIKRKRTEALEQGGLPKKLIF
T1 sequence (P51946 whole entry partner): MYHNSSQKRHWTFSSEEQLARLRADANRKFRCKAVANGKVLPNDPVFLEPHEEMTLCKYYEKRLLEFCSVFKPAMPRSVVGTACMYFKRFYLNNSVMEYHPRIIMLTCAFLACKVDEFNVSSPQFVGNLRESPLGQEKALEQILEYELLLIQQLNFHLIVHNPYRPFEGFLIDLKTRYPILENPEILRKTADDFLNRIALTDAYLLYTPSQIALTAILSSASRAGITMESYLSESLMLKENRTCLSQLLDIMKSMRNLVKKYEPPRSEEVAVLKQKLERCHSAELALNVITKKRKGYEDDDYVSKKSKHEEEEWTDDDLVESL
T1 sequence (P51948 whole entry partner): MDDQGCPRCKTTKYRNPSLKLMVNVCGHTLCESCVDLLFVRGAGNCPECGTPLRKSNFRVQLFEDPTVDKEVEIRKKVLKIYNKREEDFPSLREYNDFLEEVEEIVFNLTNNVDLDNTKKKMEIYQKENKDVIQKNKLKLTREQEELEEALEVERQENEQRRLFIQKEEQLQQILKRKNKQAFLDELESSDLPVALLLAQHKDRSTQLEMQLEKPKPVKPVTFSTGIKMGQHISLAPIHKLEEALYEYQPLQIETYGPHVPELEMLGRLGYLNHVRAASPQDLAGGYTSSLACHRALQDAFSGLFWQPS
T3 sequence (P06493 whole entry): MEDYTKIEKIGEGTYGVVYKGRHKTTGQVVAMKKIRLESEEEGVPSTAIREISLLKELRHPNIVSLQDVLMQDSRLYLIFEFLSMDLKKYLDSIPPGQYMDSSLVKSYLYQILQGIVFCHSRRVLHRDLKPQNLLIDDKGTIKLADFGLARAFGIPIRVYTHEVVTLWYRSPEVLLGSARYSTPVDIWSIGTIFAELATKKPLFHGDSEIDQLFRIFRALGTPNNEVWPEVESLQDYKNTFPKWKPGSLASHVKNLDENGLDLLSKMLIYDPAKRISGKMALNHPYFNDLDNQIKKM
T3 sequence (P14635 whole entry partner): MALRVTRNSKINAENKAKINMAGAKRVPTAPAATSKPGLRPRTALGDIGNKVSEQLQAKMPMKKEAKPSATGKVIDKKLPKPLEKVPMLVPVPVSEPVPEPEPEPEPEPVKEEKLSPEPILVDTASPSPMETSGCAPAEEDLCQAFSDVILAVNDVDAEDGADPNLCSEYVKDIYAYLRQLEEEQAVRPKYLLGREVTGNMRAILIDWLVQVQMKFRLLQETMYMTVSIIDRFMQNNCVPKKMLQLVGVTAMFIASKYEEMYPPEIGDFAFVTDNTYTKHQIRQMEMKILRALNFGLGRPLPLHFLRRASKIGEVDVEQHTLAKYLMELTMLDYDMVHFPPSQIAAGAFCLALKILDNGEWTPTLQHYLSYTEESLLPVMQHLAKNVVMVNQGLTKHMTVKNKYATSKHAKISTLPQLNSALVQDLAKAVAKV

SMILES | CDK1/CDK7: Selectivity of CDK7 inhibition over CDK1 inhibition (CDK7/Cyclin H/MNAT1) | CDK2/CDK7: Selectivity of CDK7 inhibition over CDK2 inhibition (CDK7/Cyclin H/MNAT1) | CDK5/CDK7: Selectivity of CDK7 inhibition over CDK5 inhibition (CDK7/Cyclin H/MNAT1) | IC50 (CDK7/Cyclin H/MNAT1) [nM] | IC50 (H460) [nM] | IC50 (MOLT-4) [nM] | IC50 (CDK5/p25) [nM] | IC50 (CDK1/Cyclin B) [nM] | IC50 (CDK2/Cyclin A) [nM] | IC50 (HCT116) [nM] | IC50 (RPMI-8226) [nM] | IC50 (MV4-11) [nM]
CC(C)c1cnn2c(NCc3ccccc3-n3cccn3)nc(-c3ccc(C(=O)N4CCC(N)CC4)cc3)nc12 [Compound 172] | A (A=greater than 200 fold) | B (B=less than 200 fold, but greater than 20 fold) | B (B=less than 200 fold, but greater than 20 fold) | < 100 | 1000 to 10000 | 1000 to 10000 | 100 to 1000 | > 1000 | 100 to 1000 | 1000 to 10000 |  | 
CC(C)c1cnn2c(NCc3ccccc3-c3ccc4c(c3)NC(=O)C(C)(C)O4)nc(N3CCC(N)CC3)nc12 [Compound 138] | A (A=greater than 200 fold) | B (B=less than 200 fold, but greater than 20 fold) | C (C=less than 20 fold) | < 100 | < 1000 |  | < 100 | 100 to 1000 | 100 to 1000 |  | < 1000 | 
CC(C)c1cnn2c(NCc3ccccc3-c3ccc4[nH]ncc4c3)nc(N3CCC(N)CC3)nc12 [Compound 137] | C (C=less than 20 fold) | C (C=less than 20 fold) | C (C=less than 20 fold) | < 100 | < 1000 |  | < 100 | 100 to 1000 | < 100 |  | < 1000 | 
CC(C)c1cnn2c(NCc3ccccc3NC(=O)c3cccc(NC(=O)CCCN(C)C)c3)nc(N3CCC(N)CC3)nc12 [Compound 89] | A (A=greater than 200 fold) | A (A=greater than 200 fold) | B (B=less than 200 fold, but greater than 20 fold) | < 100 |  | 1000 to 10000 | 100 to 1000 | > 1000 | > 1000 | 1000 to 10000 |  | < 1000
CC(C)c1cnn2c(NCc3cccc(Oc4ccccc4)c3)nc(N3CCC(N)CC3)nc12 [Compound 51] | B (B=less than 200 fold, but greater than 20 fold) | B (B=less than 200 fold, but greater than 20 fold) | B (B=less than 200 fold, but greater than 20 fold) | < 100 | 1000 to 10000 | 1000 to 10000 | > 1000 | > 1000 | > 1000 | 1000 to 10000 |  | 
CC(C)c1cnn2c(NCc3ccccc3-c3cc4ccccc4[nH]3)nc(N3CCC[C@@H](N)C3)nc12 [Compound 131] | B (B=less than 200 fold, but greater than 20 fold) | B (B=less than 200 fold, but greater than 20 fold) | B (B=less than 200 fold, but greater than 20 fold) | < 100 |  |  | > 1000 | > 1000 | > 1000 |  | 1000 to 10000 | 
CCC(O)c1cnn2c(NCc3ccccc3-n3cccn3)nc(N3CCC(N)CC3)nc12 (racemic) [Compound 52] | C (C=less than 20 fold) | C (C=less than 20 fold) | C (C=less than 20 fold) | < 100 | 1000 to 10000 | 1000 to 10000 | 100 to 1000 | > 1000 | 100 to 1000 | > 10000 |  | 
CC(C)c1cnn2c(NCc3ccccc3-n3cccn3)cc(N3CCC(N)CC3)nc12 [Compound 1] | B (B=less than 200 fold, but greater than 20 fold) | B (B=less than 200 fold, but greater than 20 fold) | C (C=less than 20 fold) | < 100 | < 1000 | 1000 to 10000 | 100 to 1000 | > 1000 | > 1000 | 1000 to 10000 |  | 
